Laboratory results as given in patent US8496928B2, “Method for preventing and treating cardiovascular diseases with BRCA1” (priority 2008, dated 2013).

What was measured:
[1] = system: rat neonatal ventricular cardiomyocytes (NRVMs); assay: Cardiomyocyte apoptosis, AnnexinV-FITC/PI flow cytometry and cleaved caspase-3 western blot; type: cell-based
Protocol: In FIG. 5A apoptosis in control, BRCA1-overexpressing, doxorubicin-treated and doxorubicin-treated-BRCA1-overexpressing neonatal rat ventricular cardiomyocytes (NRVCM) was assessed by Annexin V-FITC and propidium iodide staining coupled with flow cytometry. Quadrants S1, S2, S3 and S4 respectively represent necrotic, late apoptotic, viable live and early apoptotic NRVCM. FIG. 5B is a representative western blot of cleaved caspase-3 and α-actin proteins in NRVCM infected with either 10 MOI Ad-hBRCA1 or Ad-null vector for 48 hours before being exposed to 2 μM doxorubicin for 24 hours. Data are expressed as mean±SD. n=3. *P<0.05 vs untreated control group. †P<0.01 vs doxorubicin group.
The effect of pifithrin-α on doxorubicin-induced cardiomyocyte apoptosis, with or without overexpression of BRCA1 was examined. […]
BRCA-1 induced gain of function and protection against genotoxic and oxidative stress-induced apoptosis was also examined in vitro. […] Cardiomyocytes were incubated with the virus (human BRCA1 or GFP) for 48 hours after which expression of human BRCA1 or GFP were determined. Expression of BRCA1 was analyzed by real-time PCR and western blotting (see FIGS. 4A and 4B) and expression of GFP was analyzed by live cell video microscopy. […] Based on this observation, 10 MOI was determined to be the best of the three tested concentrations of the adenoviral construct. […]

[2] = system: BRCA1 and p53 interaction; assay: Co-immunoprecipitation of BRCA1 and p53 in cardiomyocytes; type: cell-based, rat; settings: agent alone
Protocol: BRCA1 physically interacts with p53 in order to regulate p53 activity in a context dependent manner. Proteins were extracted after treatment and equal amounts (100 μg) of lysates were resolved by SDS PAGE.
Experiments were performed to access the interaction of BRCA1 with p53 in cardiomyocytes. […] Additionally, doxorubicin treatment, in the presence of overexpressing BRCA1 strengthened this association (lane 4, FIG. 6).
For analysis of physical interaction between BRCA1 and p53, cardiomyocytes were maintained and treated in 6-cm culture-dishes. After adenoviral and/or stress treatments, cells were scraped and suspended in 100 μL of RIPA buffer. The total cell lysate was obtained after homogenization and centrifugation at 14,000 g for 30 minutes at 4° C. Protein concentration was determined by the Bradford assay. Aliquots of each fraction (100 μg protein for total cell lysate) were incubated with either 0.5 μg of anti-p53 mouse monoclonal antibody (Cell Signaling Technology, USA) or with 0.5 μg of anti-BRCA1 (Santa Cruz Biotechnology, USA) for 1 hour at 4° C. Addition of protein A-Sepharose (Santa Cruz Biotechnology) and incubation for 16 hours at 4° C. was followed by centrifugation and repetitive washing of the Sepharose beads. […]

p53 = assay: Western blot for p53 and phospho-p53 in cultured cardiomyocytes; type: cell-based, rat; settings: NRVMs
Protocol: GAPDH was used as loading control. Phospho-p53 antibodies were directed against serine 15 of p53 protein.
Cardiomyocytes were infected with 10MOI of a replication deficient adenoviral vector containing the CMV promoter and either human BRCA1 or a null vector (human Adenovirus Type5 dE1/E3, Vector Biolabs, USA). Following 48 hours incubation, cardiomyocytes were treated with 21 μM of doxorubicin or 50 μM of H2O2. The inhibitor of p53, pifithrin-α (10 μm, Sigma Aldrich, USA) was added 2 hrs prior to the addition of doxorubicin or hydrogen peroxide. After 24 hours, cardiomyocytes were either trypsinized and collected for flow cytometry or harvested for protein and RNA extraction.

HUVECs = assay: HUVEC apoptosis assays (Annexin V-FITC/PI flow cytometry, cleaved caspase-3, DNA fragmentation); type: cell-based, human; settings: ad-null infected HUVECs, 2 μM doxorubicin 24 hours
Protocol: In FIG. 23A ad-null or ad-BRCA1 infected HUVECs were treated with TNFα (20 ng/ml) for 24 hours. Cells were harvested for Annexin V-FITC and Propidium Iodide staining followed by flow cytometry. Total apoptotic cells are shown as mean±SD (n=3 in triplicate, **p<0.01). In FIG. 23B, HUVECs were treated with either siBRCA1 (10 nM) or scrambled siRNA (10 nM) for 24 hours. BRCA1-silenced and control HUVECs were treated with TNFα (20 ng/ml), stained with Annexin V-FITC and Propidium Iodide, and analyzed by flow cytometry. The percentage of total apoptotic cells are presented as mean±SD (n=3 in triplicate, **p<0.01). […] Data was calculated as the percentage of total apoptotic cells and presented as mean±SD (n=3 in triplicate, **p<0.01).
FIG. 31 is a bar graph showing protection of HUVECs against doxorubicin-induced apoptosis by BRCA1 overexpression. […] Data was calculated as the percentage of total apoptotic cells and presented as mean±SD (n=3 in triplicate, *p<0.01 vs. Ad-null group, †p<0.01 vs. Ad-null+2 μM Dox group). […]
Human umbilical vein endothelial cells (HUVECs) were purchased from Cambrex and cultured in MCDB-131 complete medium (Cambrex Corporation). […] These concentrations were determined from pilot optimization studies. […]
Apoptotic and necrotic cell death were assessed in ad-BRCA1 and ad-null infected HUVECs by flow cytometry coupled with the BD Annexin V-FITC Apoptosis Detection Kit. […]

Wild-type mice = assay: Doxorubicin-induced cardiac dysfunction in mice, echocardiography; settings: doxorubicin 10 mg/kg i.p.; echocardiography day 3 and day 7
Protocol: Left ventricular function was assessed by echocardiography measuring percent systolic ejection fraction 3 days (FIG. 3A) or 7 days (FIG. 3B) after administration of vehicle, Ad-null vector (40 μl of 10^10 PFU, i.v.), Ad-GFP (40 μl of 10^10 PFU, i.v.), doxorubicin (10 mg/kg, i.p.) or doxorubicin (10 mg/kg, i.p.) with Ad-hBRCA1 (40 μl of 10^10 PFU, i.v.). Left ventricular function was also assessed by measuring fractional shortening values 3 days (FIG. 3C) after administration of vehicle, Ad-null vector (40 μl of 10^10 PFU, i.v.), Ad-GFP (40 μl of 10^10 PFU, i.v.), doxorubicin (10 mg/kg, i.p.) or doxorubicin (10 mg/kg, i.p.) with Ad-hBRCA1 (40 μl of 10^10 PFU, i.v.). *P<0.01 vs corresponding PBS group. †P<0.01 vs corresponding doxorubicin group. # p<0.01 vs. PBS+ad-GFP, ## p<0.001 vs. Dox+ad-BRCA1. n=3 for PBS and GFP groups; n=7 for doxorubicin and doxorubicin-BRCA1 groups. […]
Double-blinded echocardiography was performed on the doxorubicin- and adenoviral vectors-treated mice 3 days and 7 days post-treatment. […] End-diastolic posterior LV wall thickness, LV end-diastolic (LVEDD) and end-systolic LV dimension (LVESD) were measured. During diastole, LV dimension and wall thickness were measured from the maximum chamber cavity; during systole, they were measured during maximum anterior motion of the posterior wall. […]

SMILES	number of apoptotic cardiomyocytes ([1]; BRCA1-overexpressing cardiomyocytes treated with doxorubicin and PFT-α)	number of apoptotic cells ([1]; cardiomyocytes treated with doxorubicin, PFT-α 10 μm added 2 hrs prior, vs doxorubicin only)	BRCA1 and p53 association [2]	p53 level (p53; agent on its own)	serine-15 phosphorylation of p53 (p53; doxorubicin alone)	apoptosis (HUVECs)	cardiac function (percent systolic ejection fraction, fractional shortening) (Wild-type mice)
Cc1ccc(C(=O)Cn2c3c(sc2=N)CCCC3)cc1 [PFT-α, pifithrin-α]	no further reduction	significant reductions					
COc1cccc2c1C(=O)c1c(O)c3c(c(O)c1C2=O)C[C@@](O)(C(=O)CO)C[C@@H]3O[C@H]1C[C@H](N)[C@H](O)[C@H](C)O1 [doxorubicin]			decline	upregulated p53	activated	prevalent	impairment in cardiac function
